Measurements: the supplement of paper PMC4862054
Several values for one entry are separate records, joined by “and”; a condition that tells them apart may be missing. Identical values can stand only once.

Experiments:
Settings in all cases: incubation time: 72 h
[1] = tested on: CAL-148; assay: normalised viability (% of control), CellTiter-Blue; higher = more viable cells (about 100 = DMSO control)
Method: (§1)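 DSRT, CellTiter-Blue viability, 72 h incubation. Signal is normalised to DMSO and benzethonium chloride controls. Value is the normalised response at dose 6.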

[2] = tested on: CAL-51; assay: as above
Method: as §1

[3] = tested on: CAL-85-1; assay: as above
Method: as §1

[4] = tested on: HDQ-P1; assay: as above
Method: as §1

[5] = tested on: MDA-MB-453; assay: as above
Method: as §1

[6] = tested on: DU-4475; assay: as above
Method: as §1

[7] = tested on: CAL-148; assay: as above; remark: listed apart in the source
Method: (§2)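 DSRT, CellTiter-Blue viability, 72 h incubation. Signal is normalised to DMSO and benzethonium chloride controls. Value is the normalised response at dose 8.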

[8] = tested on: CAL-51; assay: as above; remark: listed apart in the source
Method: as §2

[9] = tested on: CAL-85-1; assay: as above; remark: listed apart in the source
Method: as §2

[10] = tested on: HDQ-P1; assay: as above; remark: listed apart in the source
Method: as §2

[11] = tested on: MDA-MB-453; assay: as above; remark: listed apart in the source
Method: as §2

[12] = tested on: Hs578T; assay: normalised response (% of control), CellTiter-Glo; higher = more viable cells (100 = DMSO, 0 = benzethonium chloride kill control)
Method: (§3)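 DSRT, 72 h incubation, CellTox Green / CellTiter-Glo readout. Signal is normalised to DMSO and benzethonium chloride controls. Value is the normalised response at the highest dose.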

[13] = tested on: MDA-MB-231; assay: as above
Method: as §3

[14] = tested on: CAL-148; assay: as above
Method: as §3

[15] = tested on: BT-474; assay: as above
Method: as §3

[16] = tested on: BT-549; assay: as above
Method: as §3

[17] = tested on: HCC1599; assay: as above
Method: as §3

[18] = tested on: SK-BR-3; assay: as above
Method: as §3

[19] = tested on: MFM-223; assay: as above
Method: as §3

[20] = tested on: CAL-51; assay: as above
Method: as §3

[21] = tested on: MCF-10A; assay: as above
Method: as §3

[22] = tested on: CAL-120; assay: as above
Method: as §3

[23] = tested on: HCC1937; assay: as above
Method: as §3

[24] = tested on: MDA-MB-436; assay: as above
Method: as §3

[25] = tested on: CAL-85-1; assay: as above
Method: as §3

[26] = tested on: HDQ-P1; assay: as above
Method: as §3

[27] = tested on: MDA-MB-453; assay: as above
Method: as §3

[28] = tested on: MDA-MB-468; assay: as above
Method: as §3

[29] = tested on: HCC1143; assay: as above
Method: as §3

[30] = tested on: DU-4475; assay: as above
Method: as §3

[31] = tested on: Hs578T; assay: normalised response (% of control), CellTox Green; higher = less cell death (100 = DMSO, 0 = benzethonium chloride kill control)
In short: (§4)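 Normalised signals at single concentrations make up the values. They come from breast cancer cell lines seeded (20 µl suspension) into 384-well plates with compound at 5 concentrations in 10-fold steps over a compound-specific 10,000-fold range, incubated 72 h, and read for CellTox Green fluorescence then CellTiter-Glo luminescence. Each plate was normalised to 0.1 % DMSO (100) and a positive kill control (0).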

[32] = tested on: MDA-MB-231; assay: as above
In short: as §4

[33] = tested on: CAL-148; assay: as above
In short: as §4

[34] = tested on: BT-474; assay: as above
In short: as §4

[35] = tested on: BT-549; assay: as above
In short: as §4

[36] = tested on: HCC1599; assay: as above
In short: as §4

[37] = tested on: MFM-223; assay: as above
In short: as §4

[38] = tested on: CAL-51; assay: as above
In short: as §4

[39] = tested on: MCF-10A; assay: as above
In short: as §4

[40] = tested on: CAL-120; assay: as above
In short: as §4

[41] = tested on: HCC1937; assay: as above
In short: as §4

[42] = tested on: MDA-MB-436; assay: as above
In short: as §4

[43] = tested on: CAL-85-1; assay: as above
In short: as §4

[44] = tested on: HDQ-P1; assay: as above
In short: as §4

[45] = tested on: MDA-MB-453; assay: as above
In short: as §4

[46] = tested on: MDA-MB-468; assay: as above
In short: as §4

[47] = tested on: HCC1143; assay: as above
In short: as §4

[48] = tested on: DU-4475; assay: as above
In short: as §4

## Cc1c(N)nc([C@H](CC(N)=O)NC[C@H](N)C(N)=O)nc1C(=O)N[C@H](C(=O)N[C@H](C)[C@@H](O)[C@H](C)C(=O)N[C@H](C(=O)NCCc1nc(-c2nc(C(=O)NCCC[S+](C)C)cs2)cs1)[C@@H](C)O)[C@@H](OC1OC(CO)C(O)C(O)C1OC1OC(CO)C(O)C(OC(N)=O)C1O)c1cnc[nH]1 (stereo not given in full) [Bleomycin] (300 nM)
[1]
  normalised viability: 81.5%
[2]
  normalised viability: 90.9%
[3]
  normalised viability: 92.5%
[4]
  normalised viability: 72.9%
[5]
  normalised viability: 102%
[6]
  normalised viability: 107%

## CCCCCOC(=O)Nc1nc(=O)n([C@@H]2O[C@H](C)[C@@H](O)[C@H]2O)cc1F [Capecitabine] (300 nM)
[1]
  normalised viability: 98% and 94.3%
[2]
  normalised viability: 103% and 96.5%
[3]
  normalised viability: 92.1% and 98.6%
[4]
  normalised viability: 62.7% and 83.6%
[5]
  normalised viability: 108% and 94.3%

## CCCCCOC(=O)Nc1nc(=O)n([C@@H]2O[C@H](C)[C@@H](O)[C@H]2O)cc1F [Capecitabine] (3000 nM)
[7]
  normalised viability: 98.8% and 92.8%
[8]
  normalised viability: 109% and 96%
[9]
  normalised viability: 82.3% and 95.4%
[10]
  normalised viability: 89.4% and 86.4%
[11]
  normalised viability: 95.7% and 93.7%

## COc1cc2c(cc1-c1c(C)noc1C)ncc1[nH]c(=O)n([C@H](C)c3ccccn3)c12 [I-BET151] (10000 nM)
[12]
  normalised response: 35%
[13]
  normalised response: 62.5%
[14]
  normalised response: 71.7%
[15]
  normalised response: 59.3%
[16]
  normalised response: 38.5%
[17]
  normalised response: 67.6%
[18]
  normalised response: 53%
[19]
  normalised response: 49.9%
[20]
  normalised response: 59.5%
[21]
  normalised response: 54.5%
[22]
  normalised response: 64%
[23]
  normalised response: 72.2%
[24]
  normalised response: 75.6%
[25]
  normalised response: 30.7%
[26]
  normalised response: 67%
[27]
  normalised response: 21.8%
[28]
  normalised response: 50.6%
[29]
  normalised response: 59.3%
[30]
  normalised response: 53.3%
[31]
  normalised response: 112%
[32]
  normalised response: 45.2%
[33]
  normalised response: 72.4%
[34]
  normalised response: 95.2%
[35]
  normalised response: 81.8%
[36]
  normalised response: 93.5%
[37]
  normalised response: 104%
[38]
  normalised response: 47.1%
[39]
  normalised response: 28.1%
[40]
  normalised response: 76.1%
[41]
  normalised response: 66.3%
[42]
  normalised response: 35.5%
[43]
  normalised response: 48.9%
[44]
  normalised response: 72.8%
[45]
  normalised response: 98.5%
[46]
  normalised response: -18.1%
[47]
  normalised response: 104%
[48]
  normalised response: 81.2%

## CC(C)n1nc(-c2ccc3oc(N)nc3c2)c2c(N)ncnc21 [INK128] (1000 nM)
[12]
  normalised response: 24.5%
[13]
  normalised response: 33.9%
[14]
  normalised response: 16.1%
[15]
  normalised response: 41.1%
[16]
  normalised response: 19.5%
[17]
  normalised response: 79.2%
[18]
  normalised response: 17.4%
[19]
  normalised response: 26.5%
[20]
  normalised response: 20.9%
[21]
  normalised response: 25.1%
[22]
  normalised response: 18.5%
[23]
  normalised response: 37%
[24]
  normalised response: 45.8%
[25]
  normalised response: 24.2%
[26]
  normalised response: 29.6%
[27]
  normalised response: 30%
[28]
  normalised response: 18.7%
[29]
  normalised response: 22.1%
[30]
  normalised response: 18.4%
[31]
  normalised response: -29.1%
[32]
  normalised response: 87.6%
[33]
  normalised response: 42%
[34]
  normalised response: 93.8%
[35]
  normalised response: 93.2%
[36]
  normalised response: 99.4%
[37]
  normalised response: 28.3%
[38]
  normalised response: 85.2%
[39]
  normalised response: 92%
[40]
  normalised response: 97.3%
[41]
  normalised response: 103%
[42]
  normalised response: 91.4%
[43]
  normalised response: 115%
[44]
  normalised response: 98.4%
[45]
  normalised response: 97.1%
[46]
  normalised response: 153%
[47]
  normalised response: 113%
[48]
  normalised response: 86.9%
